Experimental data published in patent US7109193B2, “Tricyclic diazepines tocolytic oxytocin receptor antagonists” (Wyeth, priority 2001, dated 2006).

Biological target: T1, human vasopressin V2 receptor subtype (Homo sapiens, UniProt P30518)
T1 construct: host or cells: CHO cells (pZeoSV vector)
Experiment: Vasopressin binding in Chinese Hamster Ovary cell membranes expressing human vasopressin V2 subtype receptors
Settings: 100 nM, CHO cell membranes, [3H]arginine vasopressin, values without parentheses
Method: Vasopressin Binding in Chinese Hamster Ovary Cell Membranes Expressing Human Vasopressin V2 Subtype Receptors
Chinese Hamster Ovary (CHO) cells stably transfected with the human V2 subtype receptors were obtained from M. Thibonnier, Case Western Reserve University School of Medicine, Cleveland, Ohio.
A. Passaging and Amplification of Cells:
The trypsin is removed by aspiration and the cells dislodged by tapping. Cell Culture medium (e.g. 30 mL for 1:30 split) is immediately added and mixed well to inactivate trypsin. 1 mL of detached cells is added to new culture flasks containing fresh Cell Culture medium (e.g. into 25 mL per T-150 flask), and mixed gently. The cells are incubated at 37° C. in 5% CO2. The medium is changed at 3 to 4 day interval (or as appropriate). […] All steps are done under sterile conditions. B. Membrane Preparation: The cells are washed twice gently with Hank's Balanced Salt solution (e.g. use 10 mL per T-150 flask). […] The contents are transferred to centrifuge tubes (50 mL) kept in ice bath. All subsequent steps are done at 4° C. The tubes are centrifuged at 300×g for 15 min (1380 rpm on SORVAL, Model RT6000D, using the rotor for 50 mL tubes). The supernatant is discarded and the cells suspended in homogenizing buffer (10 mM Tris-HCl containing 0.25 M sucrose and 1 mM EDTA, pH 7.4) ensuring that the volume of the buffer is about ten times the volume of the cell pellet. The cells are pooled into a centrifuge tube (50 mL) and homogenized with a Polytron at setting 6 for 10 sec. The homogenate is transferred into a Potter-Elvjehm homogenizer and homogenized with 3 strokes. The homogenate is centrifuged at 1500×g for 60 min at 4° C. (3100 rpm using SORVAL, model RT6000D, using the rotor for 50 mL tubes). The pellet is discarded. The supernatant is centrifuged at 100,000×g for 60 min. at 4° C. (Beckman L8-80M ultracentrifuge; spin at 37,500 rpm with rotor type 70 Ti for 50 mL tubes; 38,000 rpm with type 80Ti for 15 mL tubes; or 35,800 rpm with rotor type 45Ti). The supernantant is discarded and the pellet suspended in 3 to 4 mL of Tris buffer (50 mM TRIS-HCl, pH 7.4). The protein content is estimated by the Bradford or Lowry method. The volume of the membrane suspension is adjusted with the membrane buffer (50 mM Tris-HCl containing 0.1% BSA and 0.1 mM PMSF) to give 3.0 mg/mL (or as appropriate) of protein. The membranes are aliquoted and stored at −70° C. C. Radioligand Binding Assay: In wells of a 96-well format microtiter plate, is added 90, 110 or 130 μL (to make up a final volume of 200 μL) of assay buffer containing 50 mM of Tris-HCl (pH 7.4), […], 1 mg % aprotinin, 1 mg % leupeptin, 2 mg % 1,10-phenanthroline, 10 mg % trypsin inhibitor, and 0.1 mM PMSF. The inhibitors are added on the day of the experiment. The components are mixed at room temperature, and then kept in ice bath following adjustment of the pH to 7.4. […] For vasopressin and other peptide ligands 20 μL of 50% DMSO is added and the assay buffer volume is adjusted accordingly. To each well is added 50 μL of frozen membrane suspension thawed immediately prior to use and diluted in assay buffer to the required concentration (equivalent to 25 to 50 μg of protein/well as needed). 20 μL of 8 nM [^3H]arginine vasopressin ligand in the assay buffer, prepared just before use is added and incubated at room temperature for 60 min. shaking the plate on a mechanical shaker for the first 15 min. The incubation is stopped by rapid filtration of the plate contents followed by wash with ice-cold buffer (50 mM Tris-HCl, pH 7.4) using a cell harvester (Tomtek and Printed filtermat-B filter paper). The filter paper is thoroughly dried (7–12 min. in a microwave oven) and impregnated with MeltiLex B/H melt-on scintillation wax sheets and the radioactivity counted in a betaplate scintillation counter.

T1 sequence (P30518 whole entry): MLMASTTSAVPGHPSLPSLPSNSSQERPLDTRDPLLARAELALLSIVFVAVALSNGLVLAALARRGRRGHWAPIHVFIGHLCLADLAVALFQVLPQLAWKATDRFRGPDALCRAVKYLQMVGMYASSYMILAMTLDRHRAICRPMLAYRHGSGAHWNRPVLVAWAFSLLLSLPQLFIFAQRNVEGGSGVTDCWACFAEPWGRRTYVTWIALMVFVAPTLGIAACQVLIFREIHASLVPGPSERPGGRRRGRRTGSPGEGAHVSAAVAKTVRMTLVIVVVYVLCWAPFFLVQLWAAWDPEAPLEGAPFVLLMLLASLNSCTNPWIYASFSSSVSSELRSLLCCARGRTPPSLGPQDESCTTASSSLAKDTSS

| inhibition at 0.1 µM | SMILES | V2 % inhibition @ 100 nM |
| --- | --- | --- |
| 15% | COc1cc(-c2ccccc2C)c(Cl)cc1C(=O)N1Cc2ccc(C(=O)NCCN3CCCCC3)n2Cc2ccccc21 [Example 155, 10-[(6-Chloro-3-methoxy-2′-methyl[1,1′-biphenyl]-4-yl)carbonyl]-N-[2-(1-piperidinyl)ethyl]-10,11-dihydro-5H-pyrrolo[2,1-c][1,4]benzodiazepine-3-carboxamide] | – |
| 18% | Cc1ccccc1-c1ccc(C(=O)N2Cc3ccc(C(=O)NCCN4CCCCC4)n3Cc3ccccc32)cc1C [Example 150, 10-[(2,2′-Dimethyl[1,1′-biphenyl]-4-yl)carbonyl]-N-[2-(1-piperidinyl)ethyl]-10,11-dihydro-5H-pyrrolo[2,1-c][1,4]benzodiazepine-3-carboxamide] | – |
| 32% | COc1ccccc1-c1ccc(C(=O)N2Cc3ccc(C(=O)N4CCC(N5CCCCC5)CC4)n3Cc3ccccc32)cc1C [Example 112, {10-[(2-Methyl-2′-methoxy[1,1′-biphenyl]-4-yl)carbonyl]-10,11-dihydro-5H-pyrrolo[2,1-c][1,4]benzodiazepin-3-yl}[4-(1-piperidinyl)-1-piperidinyl]methanone] | – |
| 8% | COc1cccc(-c2ccc(C(=O)N3Cc4ccc(C(=O)NCCCn5ccnc5)n4Cc4ccccc43)cc2OC)c1 [Example 133, 10-[(2,3′-Dimethoxy[1,1′-biphenyl]4-yl)carbonyl]-N-[3-(1H-imidazol-1-yl)propyl]-10,11-dihydro-5H-pyrrolo[2,1-c][1,4]benzodiazepine-3-carboxamide] | – |
| 20% | COc1ccccc1-c1ccc(C(=O)N2Cc3ccc(C(=O)NCCN4CCCCC4)n3Cc3ccccc32)cc1C [Example 149, 10-[(2′-Methoxy-2-methyl[1,1′-biphenyl]-4-yl)carbonyl]-N-[2-(1-piperidinyl)ethyl]-10,11-dihydro-5H-pyrrolo[2,1-c][1,4]benzodiazepine-3-carboxamide] | – |
| – | COc1cc(C(=O)N2Cc3ccc(C(=O)N4CCC[C@H]4CN4CCCC4)n3Cc3ccccc32)ccc1-n1c(C)ccc1C [Example 321, {10-[4-(2,5-Dimethyl-1H-pyrrol-1-yl)-3-methoxybenzoyl]-10,11-dihydro-5H-pyrrolo[2,1-c][1,4]benzodiazepin-3-yl}[(2S)-2-(1-pyrrolidinylmethyl)pyrrolidinyl]methanone] | 23% |
| 6% | COc1cccc(-c2ccc(C(=O)N3Cc4ccc(C(=O)N5CCC(N6CCCCC6)CC5)n4Cc4ccccc43)cc2OC)c1 [Example 120, {10-[(2,3′-Dimethoxy-[1,1′-biphenyl]-4-yl)carbonyl]-10,11-dihydro-5H-pyrrolo[2,1-c][1,4]benzodiazepin-3-yl}[4-(1-piperidinyl)-1-piperidinyl]methanone] | – |
| – | COc1cccc(-c2ccc(C(=O)N3Cc4ccc(C(=O)N5CCC[C@H]5CN5CCCC5)n4Cc4ccccc43)cc2OC)c1 [Example 270, {10-[(2,3′-Dimethoxy[1,1′-biphenyl]-4-yl)carbonyl]-10,11-dihydro-5H-pyrrolo[2,1-c][1,4]benzodiazepin-3-yl}[(2S)-2-(1-pyrrolidinylmethyl)pyrrolidinyl]methanone] | 25% |
| 6% | COc1cccc(-c2ccc(C(=O)N3Cc4ccc(C(=O)NCCN5CCCCC5)n4Cc4ccccc43)cc2C)c1 [Example 151, 10-[(3′-Methoxy-2-methyl[1,1′-biphenyl]-4-yl)carbonyl]-N-[2-(1-piperidinyl)ethyl]-10,11-dihydro-5H-pyrrolo[2,1-c][1,4]benzodiazepine-3-carboxamide] | – |
| – | COc1cc(C(=O)N2Cc3ccc(C(=O)N(C)CCCN(C)C)n3Cc3ccccc32)ccc1-n1c(C)ccc1C [Example 310, N-[3-(Dimethylamino)propyl]-10-[4-(2,5-dimethyl-i H-pyrrol-1-yl)-3-methoxybenzoyl]-N-methyl-10,11-dihydro-5H-pyrrolo[2,1-c][1,4]benzodiazepine-3-carboxamide] | 12% |
| – | Cc1ccccc1-c1ccc(C(=O)N2Cc3ccc(C(=O)N4CC[C@@H](N(C)C)C4)n3Cc3ccccc32)cc1C [Example 274, [(3R)-3-(Dimethylamino)pyrrolidinyl]{10-[(2,2′-dimethyl[1,1′-biphenyl]-4-yl)carbonyl]-10,11-dihydro-5H-pyrrolo[2,1-c][1,4]benzodiazepin-3-yl}methanone] | 32% |
| – | COc1cc(C(=O)N2Cc3ccc(C(=O)N4CCC[C@H]4CN4CCCC4)n3Cc3ccccc32)ccc1-c1ccccc1C [Example 266, {10-[(2-Methoxy-2′-methyl[1,1′-biphenyl]-4-yl)carbonyl]-10,11-dihydro-5H-pyrrolo[2,1-c][1,4]benzodiazepin-3-yl}[(2S)-2-(1-pyrrolidinylmethyl)pyrrolidinyl]methanone] | −17% |
| 9% | COc1cc(C(=O)N2Cc3ccc(C(=O)NCCN4CCCCC4)n3Cc3ccccc32)ccc1-c1ccccc1C [Example 154, 10-[(2-Methoxy-2′-methyl[1,1′-biphenyl]4-yl)carbonyl]-N-[2-(1-piperidinyl)ethyl]-10,11-dihydro-5H-pyrrolo[2,1-c][1,4]benzodiazepine-3-carboxamide] | – |
| 14% | COc1cccc(-c2cc(OC)c(C(=O)N3Cc4ccc(C(=O)N5CCC(N6CCCCC6)CC5)n4Cc4ccccc43)cc2Cl)c1 [Example 117, {10-[(6-Chloro-3-methoxy-3′-methoxy[1,1′-biphenyl]-4-yl)carbonyl]-10,11-dihydro-5H-pyrrolo[2,1-c][1,4]benzodiazepin-3-yl}[4-(1-piperidinyl)-1-piperidinyl]methanone] | – |
| – | COc1ccccc1-c1ccc(C(=O)N2Cc3ccc(C(=O)N4CCC[C@H]4CN4CCCC4)n3Cc3ccccc32)cc1 [Example 265, {10-[(2′-Methoxy[1,1′-biphenyl]-4-yl)carbonyl]-10,11-dihydro-5H-pyrrolo[2,1-c][1,4]benzodiazepin-3-yl}[(2S)-2-(1-pyrrolidinylmethyl)pyrrolidinyl]methanone] | 10% |
| – | O=C(c1ccc2n1Cc1ccccc1N(C(=O)c1ccc(-c3cccc4ccccc34)cc1Cl)C2)N1CCC(N2CCCCC2)CC1 [Example 121] | 13% |
| 5% | COc1cc(-c2ccccc2C)c(Cl)cc1C(=O)N1Cc2ccc(C(=O)NCCCn3ccnc3)n2Cc2ccccc21 [Example 129, 10-[(6-Chloro-3-methoxy-2′-methyl[1,1′-biphenyl]-4-yl)carbonyl]-N-[3-(1H-imidazol-1-yl)propyl]-10,11-dihydro-5H-pyrrolo[2,1-c][1,4]benzodiazepine-3-carboxamide] | – |
| – | COc1cc(C(=O)N2Cc3ccc(C(=O)N4CC[C@@H](N(C)C)C4)n3Cc3ccccc32)ccc1-c1cccc2ccccc12 [Example 276, [(3R)-3-(Dimethylamino)pyrrolidinyl]{10-[3-methoxy-4-(1-naphthyl)benzoyl]-10,11-dihydro-5H-pyrrolo[2,1-c][1,4]benzodiazepin-3-yl}methanone] | −3% |
| 15% | COc1ccccc1-c1ccc(C(=O)N2Cc3ccc(C(=O)NCCCn4ccnc4)n3Cc3ccccc32)cc1C [Example 123, N-[3-(1H-Imidazol-1-yl)propyl]-10-[(2′-methoxy-2-methyl[1,1′-biphenyl]-4-yl)carbonyl]-10,11-dihydro-5H-pyrrolo[2,1-c][1,4]benzodiazepine-3-carboxamide] | – |
